Patent US20230041621A1, “SSTR5 ANTAGONISTS” (Kallyope, Inc., priority 2019, published 2023)

Experiment: Oral bioavailability after oral dosing in rat
Details: in vivo, Sprague Dawley rats, IV 1 mg/kg, PO 5 mg/kg, IV vehicle 5% DMSO + 30% PEG400 + 65% water, PO vehicle 0.5% methyl cellulose in water
Procedure: Oral bioavailability of the compounds was determined in Sprague Dawley rats. The table below summarizes the results. Each compound was dosed intravenously (IV) at 1 mg/kg and orally (PO) 5 mg/kg using the respective vehicles listed below. The compounds display low (<10%) oral bioavailability (F %).

Row | Compound | bioavailability [%]
1 | CCOc1cc(-c2ccc(F)cc2)c(C2CC2)cc1CN1CCC2(CC1)CN(c1ccc(S(=O)(=O)O)cc1)C(=O)O2 [Compound 1, 4-(8-((2-cyclopropyl-5-ethoxy-4′-fluoro-[1,1′-biphenyl]-4-yl)methyl)-2-oxo-1-oxa-3,8-diazaspiro[4.5]decan-3-yl)benzenesulfonic acid] | 4.6
2 | CCOc1cc(-c2ccc(F)cn2)c(C2CC2)cc1CN1CCC2(CC1)CN(c1ccc(S(=O)(=O)O)cc1)C(=O)O2 [Compound 3, 4-(8-(5-cyclopropyl-2-ethoxy-4-(5-fluoropyridin-2-yl)benzyl)-2-oxo-1-oxa-3,8-diazaspiro[4.5]decan-3-yl)benzenesulfonic acid] | 1.2
3 | CCOc1cc(-c2ccc(F)cc2)c(C2CC2)cc1CN1CCC2(CC1)CC(=O)N(c1ccc(S(=O)(=O)O)cc1)C2 [Compound 2, 4-(8-((2-cyclopropyl-5-ethoxy-4′-fluoro-[1,1′-biphenyl]-4-yl)methyl)-3-oxo-2,8-diazaspiro[4.5]decan-2-yl)benzenesulfonic acid] | 2.1
